Like-named read-outs stand apart in the source and are kept apart here.
How the values were obtained:
[1] = molecular target: maltose-binding protein (MBP) (Escherichia coli, UniProt P0AEX9); set-up: species or system E. coli; details: for frequency of state 1 / frequency of state 2 / frequency of state 3: 1 μM maltose; for current signal of trapped MBP on addition of the sugar: added to the cis chamber
[2] = cited from earlier work
[3] = molecular target: MBP (Escherichia coli, UniProt P0AEX9); details: read-out: Kd, previously determined value; cited from earlier work
[4] = 10 μM sodium phosphate, before depletion of α-maltose
[5] = after depletion of α-maltose by 0.25 unit maltose phosphorylase
[6] = in the presence of ligand, −80 mV
[7] = assumption that state 3 represents MBP bound to an aldehyde intermediate
[8] = state 1, β anomer, −80 mV, pH 7.5
[9] = state 2, α anomer, −80 mV, pH 7.5
[10] = state 3, β anomer (second binding mode), −80 mV, pH 7.5

OC[C@H]1O[C@H](O[C@H]2[C@H](O)[C@@H](O)[C@H](O)O[C@@H]2CO)[C@H](O)[C@@H](O)[C@@H]1O [Maltose, maltose]
frequency of state 1 [1, 4]: 4.28 ± 0.57 s⁻¹ | frequency of state 2 [1, 4]: 0.18 ± 0.17 s⁻¹ | frequency of state 1 [1, 5]: 5.59 ± 0.89 s⁻¹ | frequency of state 2 [1, 5]: 0 s⁻¹ | frequency of state 3 ([1]; after the depletion of α-maltose): 0.01 ± 0.02 s⁻¹ | frequency of state 3 ([1]; before the depletion of α-maltose): 0.05 ± 0.04 s⁻¹ | residual current, state 0 [1, 6]: 56.5 ± 0.4% | residual current, state 1 [1, 6]: 54.0 ± 0.4% | residual current, state 2 [1, 6]: 52.0 ± 0.4% | residual current, state 3 [1, 6]: 51.1 ± 0.4%

O=C[C@H](O)[C@@H](O)[C@H](O[C@H]1O[C@H](CO)[C@@H](O)[C@H](O)[C@H]1O)[C@H](O)CO [aldehyde intermediate]
Kd [1, 7]: 0.019 nM | koff [1, 7]: 1.3 ± 0.5 s⁻¹ | kon [1, 7]: 6.9 ± 2.8 × 10^10 M^−1s^−1

OC[C@H]1O[C@H](O[C@H]2[C@H](O)[C@@H](O)[C@@H](O[C@H]3[C@H](O)[C@@H](O)[C@@H](O[C@H]4[C@H](O)[C@@H](O)C(O)O[C@@H]4CO)O[C@@H]3CO)O[C@@H]2CO)[C@H](O)[C@@H](O)[C@@H]1O (some centres unmarked) [maltotetraose]
current signal of trapped MBP on addition of the sugar ([1]; −80 mV): three ligand-bound current levels similar to those of maltose and maltotriose

OC[C@H]1O[C@@](CO)(O[C@H]2O[C@H](CO)[C@@H](O)[C@H](O)[C@H]2O)[C@@H](O)[C@@H]1O [sucrose]
current signal of trapped MBP on addition of the sugar ([1]; −80 mV): no signal change

OC[C@H]1O[C@H](O[C@H]2[C@H](O)[C@@H](O)[C@@H](O)O[C@@H]2CO)[C@H](O)[C@@H](O)[C@@H]1O [α-maltose]
rate constant of spontaneous interconversion between α-maltose and β-maltose [2]: ~ 0.009 min^−1

OC[C@H]1O[C@@H]2O[C@H]3[C@H](O)[C@@H](O)[C@@H](O[C@H]4[C@H](O)[C@@H](O)[C@@H](O[C@H]5[C@H](O)[C@@H](O)[C@@H](O[C@H]6[C@H](O)[C@@H](O)[C@@H](O[C@H]7[C@H](O)[C@@H](O)[C@@H](O[C@H]8[C@H](O)[C@@H](O)[C@@H](O[C@H]1[C@H](O)[C@H]2O)O[C@@H]8CO)O[C@@H]7CO)O[C@@H]6CO)O[C@@H]5CO)O[C@@H]4CO)O[C@@H]3CO [β-cyclodextrin]
current signal of trapped MBP on addition of the sugar ([1]; −80 mV): one major current level similar to state 1 of maltose

maltotriose
current signal of trapped MBP on addition of the sugar ([1]; −80 mV): four states that were almost identical to the states seen with maltose | Kd ([1]; state 1, β anomer, −80 mV, 150 mM NaCl, 15 mM Tris-HCl, pH 7.5): 120 nM | koff [1, 8]: 4.8 ± 0.3 s⁻¹ | kon [1, 8]: 40.8 ± 0.1 µM⁻¹ s⁻¹ | association rate of major β-anomer binding state relative to α-anomer ([1]; state 1 versus state 2): more than 3 times | Kd [1, 9]: 240 ± 10 nM | koff [1, 9]: 1.6 ± 0.1 s⁻¹ | kon [1, 9]: 6.6 ± 0.1 µM⁻¹ s⁻¹ | Kd [1, 10]: 380 ± 20 nM | koff [1, 10]: 1.9 ± 0.4 s⁻¹ | kon [1, 10]: 5.0 ± 0.2 µM⁻¹ s⁻¹ | Kd [3]: 160 to 700 nM
